Results published in patent US8022178B2, “Modified self-assembling peptides” (Massachusetts Institute of Technology, priority 2006, dated 2011).
“Also recorded” adds a separate entry of the source.

How the values were obtained:
[1] = tested on: adipose derived stem cells (ADSC); assay: Growth factors secreted by ADSC into the culture medium (ELISA); assay type: cell-based, human; conditions: from 1 day up to 7 days of culture, control tissue culture plate, FIG. 35
Protocol: The peptide solutions shown in Table 25 were loaded in the culture inserts (10 mm diameter, Millicell-CM, Millipore) and gels were formed using cell culture medium (DMEM-F12+10% FBS, Gibco). ADSC were plated at 4×10^4 cells on the inserts and cultured up to 7 Days.
The growth factors secreted into the culture medium were also evaluated using ELISA method (FIGS. 35A-35B). The growth factors secreted from stem cell are considered to be main source of the cell therapy by reducing apotosis and increasing angiogenesis. Especially HGF and VEGF are considered to key components for reducing apotosis and increasing angiogenesis. The medium of ADSC cultured on tissue culture plate was used as control (shown as TCP). […] For VEGF, all peptide matrix had increase of VEGF secretion in 1 day culture medium.

[2] = tested on: bone defects of 4 mm diameter in rat skull; assay: Rat skull bone defect filled with hydrogel, bone formation evaluation; assay type: in vivo; conditions: grade 1 more than 80%, 2 more than 50%, 3 weak in X-ray
Protocol: The effects of the functionalized peptide were evaluated in vivo in rats. 6 weeks male rat sculls were used for this evaluation (two samples for each experiment).
The rats in this study underwent creation of two bone defects of 4 mm diameter, bilaterally in each skull. Some of the defects were left empty as controls.
The peptide solution was directly injected to the defects without cells. The peptide solution formed a hydrogel immediately after injection by the salt in the body fluid (e.g., blood, lymph fluid, and the like).
Bone Formation Evaluation: All animals from each group were euthanized 2 and 4 weeks later. The X-ray image of the skulls were taken. The skulls were collected, hemisected, and fixed in formalin. The defects were then trimmed, decalcified, embedded in paraffin, stained by HE staining method, and evaluated by a Veterinary pathologist, who characterized by histomorphometry the type of tissue contained within the defects. The degree of bone regeneration is graded as Complete recovery, 1 (more than 80%), 2 (more than 50%), or 3 (weak in X-ray).

[3] = tested on: neurons; conditions: neurons grown on surface (Holmes 2000); cited from earlier work
[4] = tested on: Liver progenitor cells; conditions: encapsulated liver progenitor cells (Semino 2003); cited from earlier work
[5] = tested on: HUVEC (human umbilical vein endothelial cells); assay: HUVEC culture on bFGF loaded peptide matrix; assay type: cell-based; conditions: Day 3; bFGF loaded matrix compared to negative and positive control; FIG. 21; listed as RAD-2P
Protocol: The effect of protein retention and delivery using the self-assembling peptide were studied (Table 11). bFGF was used as a model protein. The retention of bFGF in different peptide matrix in different charge condition was measured by ELISA after washing by PBS. After washing out unbound bFGF, the effect of protein retention to self-assembling peptide matrix were evaluated the using cell culturing of HUVEC (human umbilical vein endothelial cells).
The peptide solutions provided in Table 12 were loaded in the culture inserts (10 mm diameter, Millicell-CM, Millipore) and gels were formed using PBS. After gelation, bFGF solution in PBS was added inside and outside and plated for overnight. bFGF was loaded at 175 ng/insert. After loading bFGF, the PBS inside and outside the inserts were exchanged three times (2 hours, 9 hours and 12 hours) to remove unbound bFGF (Washing). […]
Cell culturing using cell culture medium (EGM-2-MV) was used without attached growth factor on peptide matrix as negative control. […] The bFGF concentration in washing buffer (PBS) and cell culture medium (EGM-2-MV) was measured using ELISA. […] Growth factor retention rate was calculated by accumulating the amount of measured bFGF. […]

[6] = tested on: Mouse preosteoblast cell line (MC3T3-E1); assay: Osteocalcin secreted in culture medium (EIA); assay type: cell-based; conditions: FIG. 17 compared to FIG. 6; versus PRGmx or PRFmx
Protocol: (§1) Mouse preosteoblast cell line (MC3T3-E1) was used to compare the proliferation and differentiation effects of the motifs with RAD16-1 and Collagen-I hydrogels as controls. The proliferation was measured by DNA contents and the differentiation effects were evaluated using Alkaline phosphatase (ALP) activity and secreted Osteocalcin. Alkaline phosphatase is known to be differentiation marker of osteoblast in earlier stage. Secreted Osteocalcin is known to be differentiation marker of osteoblast in later stage and its activity is correlated with the bone mineralization.
(§2) 1% RAD16-I solution [self-assembling peptide solution] was obtained as RAD16-I (Puramatrix™, 3DM Inc./BD Bioscience). The functionalized peptides of Table 2 were dissolved in water at final concentration of 1% (v/w). The functionalized peptide solutions were then mixed with 1% RAD16-I solution at a ratio of 1:1 (Table 4). Each peptide solution was loaded in the Culture plate inserts (10 mm diameter, Millicell-CM, Millipore). […]
(§3) Cell proliferation was evaluated using DNA contents in the hydrogel using PicoGreen dsDNA Kits (Molecular Probes). ALP activity was quantitatively measured from cell lysis using Alkaline Phosphatase Fluorescence Assay Kit (Sigma). Osteocalcin was measured from cell culture medium using Mouse Osteocalcin EIA Kit (Biomedical Technologies Inc.).

[7] = tested on: Mouse preosteoblast cell line (MC3T3-E1); assay: Alkaline phosphatase (ALP) activity of MC3T3-E1 on hydrogels; assay type: cell-based; conditions: 1% FHR hydrogel; FIGS. 14-16A/B compared to FIGS. 3-4
Protocol: as §1, §2, §3

| Substance | HGF secreted into the culture medium [1] | Average score (degree of bone regeneration) ([2]; four weeks) | Average score (degree of bone regeneration) ([2]; two weeks) | neurite outgrowth and synapse formation [3] | hepatocyte marker expression [4] | cell attachment and cell spread [5] | effect to promote differentiation (osteocalcin) [6] | promotion of pre-osteoblast differentiation [7] |
| --- | --- | --- | --- | --- | --- | --- | --- | --- |
| Ac(RADA)4-CONH2 | significant increase | 1.0 | 3.0 | able to serve as a substrate for neurite outgrowth and formation of functionally active synapses | expressed markers indicative of hepatocyte phenotype | superior; also recorded: dominant effect |  |  |
| Ac(RADA)4GGFHRRIKA-CONH2 (Ac-RADARADARADARADAGGFHRRIKA-NH2) [FHR = 1% solution; FHR-2P = 2% solution] |  |  |  |  |  |  | not so strong | some function to promote differentiation |
